Measured values taken from patent publication US20240182481A1 (Tango Therapeutics, Inc., priority 2021, published 2024).
Where two headings read alike, the source gives them in different places.

Key:
USP1-UAF1 = USP1-UAF1 (Homo sapiens, UniProt O94782); assay: Ubiquitin Rhodamine assay for USP1-UAF1 activity; format: biochemical
Procedure: Certain compounds of the disclosure were assessed for USP1-UAF1 activity in a Ubiquitin Rhodamine assay as described in Example 135.

[1] = test system: MDA-MB-436 (BRCA1 mutant) cell line; assay: Viability assay in BRCA1 mutant cell line MDA-MB-436; format: cell-based; settings: BRCA1 mutant MDA-MB-436, read-out: MDA-MB-436 rel IC50
Text: (§1) Table 1 also indicates IC50 values in a viability assay for a non-isogenic pair of BRCA1 mutant (column 5—MDA-MB-436) and BRCA1 WT (column 6—HCC1954) cell lines. These values indicate the effect of treatment with compound on cell survival.

[2] = test system: HCC1954 (BRCA1 WT) cell line; assay: Viability assay in BRCA1 WT cell line HCC1954; format: cell-based; settings: read-out: HCC 1954 IC50 rel IC50
Text: as §1

monoubiquitinated PCNA = assay: AlphaLISA assay measuring monoubiquitinated PCNA in MDA-MB-436; format: cell-based; settings: read-out: Alpha LISA IC50
Text: Table 1 also indicates IC50 values for exemplary compounds in an AlphaLISA assay measuring monoubiquitinated PCNA in a BRCA1 mutant cell line (MDA-MB-436; column 7).

[3] = Homo sapiens, MDA-MB-436, viability

Chain of USP1-UAF1 (O94782 whole entry): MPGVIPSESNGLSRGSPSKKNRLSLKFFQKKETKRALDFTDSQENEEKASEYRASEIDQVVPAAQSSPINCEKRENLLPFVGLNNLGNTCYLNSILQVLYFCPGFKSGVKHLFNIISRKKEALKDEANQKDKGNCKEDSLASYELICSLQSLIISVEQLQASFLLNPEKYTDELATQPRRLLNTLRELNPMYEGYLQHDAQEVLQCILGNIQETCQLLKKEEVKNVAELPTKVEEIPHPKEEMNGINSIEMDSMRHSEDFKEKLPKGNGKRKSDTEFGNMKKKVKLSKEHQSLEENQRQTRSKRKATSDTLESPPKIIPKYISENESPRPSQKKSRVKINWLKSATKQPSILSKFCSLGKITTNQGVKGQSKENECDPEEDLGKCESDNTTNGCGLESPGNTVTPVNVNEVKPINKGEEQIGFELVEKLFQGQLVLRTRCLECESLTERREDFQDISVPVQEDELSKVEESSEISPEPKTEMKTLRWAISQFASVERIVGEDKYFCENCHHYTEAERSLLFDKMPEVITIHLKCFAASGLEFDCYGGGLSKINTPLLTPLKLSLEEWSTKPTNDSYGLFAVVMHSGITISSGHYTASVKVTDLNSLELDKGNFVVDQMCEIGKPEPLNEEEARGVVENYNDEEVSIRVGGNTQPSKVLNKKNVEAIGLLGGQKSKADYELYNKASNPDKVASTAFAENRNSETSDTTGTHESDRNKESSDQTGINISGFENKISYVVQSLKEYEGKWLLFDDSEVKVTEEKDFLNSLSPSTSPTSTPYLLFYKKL
Chain of USP1-UAF1 (Q8TAF3 whole entry partner): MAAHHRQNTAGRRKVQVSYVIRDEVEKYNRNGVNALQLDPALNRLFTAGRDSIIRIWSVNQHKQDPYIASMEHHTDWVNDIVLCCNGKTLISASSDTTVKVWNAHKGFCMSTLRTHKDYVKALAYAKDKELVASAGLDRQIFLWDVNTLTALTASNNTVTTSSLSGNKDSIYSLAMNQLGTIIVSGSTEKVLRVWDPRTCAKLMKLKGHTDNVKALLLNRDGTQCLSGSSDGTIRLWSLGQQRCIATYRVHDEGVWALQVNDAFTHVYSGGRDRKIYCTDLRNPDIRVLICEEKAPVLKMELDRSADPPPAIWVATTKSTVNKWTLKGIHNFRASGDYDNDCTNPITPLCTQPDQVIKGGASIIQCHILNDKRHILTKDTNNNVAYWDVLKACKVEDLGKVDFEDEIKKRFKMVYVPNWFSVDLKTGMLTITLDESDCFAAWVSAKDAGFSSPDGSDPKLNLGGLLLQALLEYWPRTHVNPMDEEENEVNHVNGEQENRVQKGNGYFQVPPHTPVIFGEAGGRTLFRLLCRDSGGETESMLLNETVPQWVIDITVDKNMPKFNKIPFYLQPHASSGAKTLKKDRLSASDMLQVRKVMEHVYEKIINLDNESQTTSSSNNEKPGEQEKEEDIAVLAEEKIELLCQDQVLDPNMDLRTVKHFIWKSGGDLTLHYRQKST

Compound | IC50 (USP1-UAF1) | IC50 [1, 3] | IC50 ([2]; Homo sapiens) | IC50 (monoubiquitinated PCNA; Homo sapiens) | IC50 ([1]; viability) | IC50 [2] | IC50 (monoubiquitinated PCNA)
COc1ncnc(C2CC2)c1-c1ncc2[nH]cc(Cc3ccc(-n4nc(C(F)(F)F)cc4C)c(F)c3)c2n1 [Compound 88, 2-(4-cyclopropyl-6-methoxy-pyrimidin-5-yl)-7-[[3-fluoro-4-[5-methyl-3-(trifluoromethyl)pyrazol-1-yl]phenyl]methyl]-5H-pyrrolo[3,2-d]pyrimidine] | < 30 nM | < 100 nM | ≥ 10000 nM | < 100 nM |  |  | 
COc1ncnc(C2CC2)c1-c1ncc2[nH]nc(Cc3ccc(-c4nc(C(F)(F)F)cn4C4COC4)cc3)c2n1 [Compound 133, 5-(4-cyclopropyl-6-methoxy-pyrimidin-5-yl)-3-[[4-[1-(oxetan-3-yl)-4-(trifluoromethyl)imidazol-2-yl]phenyl]methyl]-1H-pyrazolo[4,3-d]pyrimidine] | 30 to 100 nM | < 100 nM | ≥ 10000 nM | 100 to 250 nM |  |  | 
COc1ncnc(C2CC2)c1-c1ncc2nn(C(C)C)c(Cc3ccc(-c4nc(C(F)(F)F)cn4C)cc3)c2n1 (single isomer, unassigned) [Compound 104, 5-(4-cyclopropyl-6-methoxy-pyrimidin-5-yl)-2-isopropyl-3-[[4-[1-methyl-4-(trifluoromethyl)imidazol-2-yl]phenyl]methyl]pyrazolo[4,3-d]pyrimidine] | 100 to 10000 nM | 100 to 250 nM | ≥ 10000 nM | 100 to 250 nM |  |  | 
Cn1cc(C(F)(F)F)nc1-c1ccc(Cc2c[nH]c3cnc(-c4cccnc4N4CCC4)nc23)cc1 [Compound 67, 2-[2-(azetidin-1-yl)-3-pyridyl]-7-[[4-[1-methyl-4-(trifluoromethyl)imidazol-2-yl]phenyl]methyl]-5H-pyrrolo[3,2-d]pyrimidine] | 100 to 10000 nM | 250 to 10000 nM | ≥ 10000 nM | 250 to 10000 nM |  |  | 
COc1ncnc(C2CC2)c1-c1cc2c(Cc3ccc(-c4nc(C(F)(F)F)cn4C)cc3)c[nH]c2cn1 [Compound 23, 5-(4-cyclopropyl-6-methoxy-pyrimidin-5-yl)-3-[[4-[1-methyl-4-(trifluoromethyl)imidazol-2-yl]phenyl]methyl]-1H-pyrrolo[2,3-c]pyridine] | < 30 nM | < 100 nM | 250 to 10000 nM | < 100 nM |  |  | 
COc1ncnc(C2CC2)c1-c1ncc2nn(S(C)(=O)=O)c(Cc3ccc(-c4nc(C(F)(F)F)cn4C)cc3)c2n1 [Compound 164, 5-(4-cyclopropyl-6-methoxy-pyrimidin-5-yl)-2-methylsulfonyl-3-[[4-[1-methyl-4-(trifluoromethyl)imidazol-2-yl]phenyl]methyl]pyrazolo[4,3-d]pyrimidine] | 30 to 100 nM | < 100 nM | ≥ 10000 nM | < 100 nM |  |  | 
CC(C)c1ccccc1-c1ncc2[nH]cc([C@@H](C)c3ccc(-c4nc(C(F)(F)F)cn4C)cc3)c2n1 (single isomer, unassigned) [Compound 82] | < 30 nM | < 100 nM | 250 to 10000 nM | < 100 nM |  |  | 
Cn1cc(C(F)(F)F)nc1-c1ccc(Cc2c[nH]c3cnc(-c4c(C5CC5)ncnc4C4CC4)nc23)cc1 [Compound 193, 2-(4,6-dicyclopropylpyrimidin-5-yl)-7-[[4-[1-methyl-4-(trifluoromethyl)imidazol-2-yl]phenyl]methyl]-5H-pyrrolo[3,2-d]pyrimidine] | < 30 nM | < 100 nM | ≥ 10000 nM | < 100 nM |  |  | 
COc1ncnc(C2CC2)c1-c1nc(C(F)(F)F)c2[nH]cc(Cc3ccc(-c4nc(C(F)(F)F)cn4C)cc3)c2n1 [Compound 121, 2-(4-cyclopropyl-6-methoxy-pyrimidin-5-yl)-7-[[4-[1-methyl-4-(trifluoromethyl)imidazol-2-yl]phenyl]methyl]-4-(trifluoromethyl)-5H-pyrrolo[3,2-d]pyrimidine] | < 30 nM | < 100 nM | ≥ 10000 nM | < 100 nM |  |  | 
CCn1cc(C(F)(F)F)nc1-c1ccc(C(O)c2c[nH]c3cnc(-c4c(OC)ncnc4C4CC4)nc23)cc1 (centres unmarked) [Compound 33] | 100 to 10000 nM | 250 to 10000 nM | ≥ 10000 nM | 250 to 10000 nM |  |  | 
Cn1cc(C(F)(F)F)nc1-c1ccc(C(O)c2c[nH]c3cnc(-c4c(OC(F)F)ncnc4C4CC4)nc23)cc1 (single isomer, unassigned) [Compound 141] | < 30 nM |  |  |  | < 100 nM | ≥ 10000 nM | < 100 nM
COc1ncnc(C2CC2)c1-c1nc(C(F)(F)F)c2[nH]nc(Cc3ccc(-c4nc(C(F)(F)F)cn4C)cc3)c2n1 [Compound 114, 5-(4-cyclopropyl-6-methoxy-pyrimidin-5-yl)-3-[[4-[1-methyl-4-(trifluoromethyl)imidazol-2-yl]phenyl]methyl]-7-(trifluoromethyl)-1H-pyrazolo[4,3-d]pyrimidine] | < 30 nM | < 100 nM | ≥ 10000 nM | < 100 nM |  |  | 
Cn1cc(C(F)(F)F)nc1-c1ccc(Cc2c[nH]c3cnc(-c4c(OC(F)F)ncnc4C4CC4)nc23)cc1 [Compound 138, 2-[4-cyclopropyl-6-(difluoromethoxy)pyrimidin-5-yl]-7-[[4-[1-methyl-4-(trifluoromethyl)imidazol-2-yl]phenyl]methyl]-5H-pyrrolo[3,2-d]pyrimidine] | < 30 nM | < 100 nM | ≥ 10000 nM | < 100 nM |  |  | 
C[C@H](Oc1ncccc1-c1ncc2[nH]cc(Cc3ccc(-c4nc(C(F)(F)F)cn4C)cc3)c2n1)C(F)(F)F (single isomer, unassigned) [Compound 51] | < 30 nM | < 100 nM | 250 to 10000 nM | < 100 nM |  |  | 

Second part, the compound after the results:

IC50 (USP1-UAF1) | IC50 [1, 3] | IC50 ([2]; Homo sapiens) | IC50 (monoubiquitinated PCNA; Homo sapiens) | IC50 ([1]; viability) | IC50 [2] | IC50 (monoubiquitinated PCNA) | Compound
< 30 nM | < 100 nM | ≥ 10000 nM | 100 to 250 nM |  |  |  | CCn1cc(C(F)(F)F)nc1-c1ccc(Cc2c[nH]c3cnc(-c4c(OC)ncnc4C4CC4)nc23)cc1 [Compound 15]
< 30 nM | < 100 nM | ≥ 10000 nM | 100 to 250 nM |  |  |  | COc1ccnc(C2CC2)c1-c1ncc2[nH]nc(Cc3ccc(-c4nc(C(F)(F)F)cn4C)cc3)c2n1 [Compound 116]
< 30 nM | < 100 nM | ≥ 10000 nM | < 100 nM |  |  |  | COc1ncnc(C2CC2)c1-c1ncc2[nH]nc(Cc3ccc(-c4nc(C(F)(F)F)cn4C)cc3C)c2n1 [Compound 196]
100 to 10000 nM | 250 to 10000 nM | 250 to 10000 nM | 250 to 10000 nM |  |  |  | Cn1cc(C(F)(F)F)nc1-c1ccc(Nc2c[nH]c3cnc(-c4ccccc4C4CC4)nc23)cc1 [Compound 12, 2-(2-cyclopropylphenyl)-N-[4-[1-methyl-4-(trifluoromethyl)imidazol-2-yl]phenyl]-5H-pyrrolo[3,2-d]pyrimidin-7-amine]
< 30 nM | 100 to 250 nM | ≥ 10000 nM | 250 to 10000 nM |  |  |  | COc1cccc(OC)c1-c1ncc2[nH]nc(Cc3ccc(-c4nc(C(F)(F)F)cn4C)cc3)c2n1 [Compound 136]
30 to 100 nM | < 100 nM | ≥ 10000 nM | < 100 nM |  |  |  | CCOc1ncnc(C2CC2)c1-c1ncc2[nH]cc(Cc3ccc(-c4nc(C(F)(F)F)cn4C)cc3)c2n1 [Compound 111, 2-(4-cyclopropyl-6-ethoxy-pyrimidin-5-yl)-7-[[4-[1-methyl-4-(trifluoromethyl)imidazol-2-yl]phenyl]methyl]-5H-pyrrolo[3,2-d]pyrimidine]
